Results as given in ChEMBL document CHEMBL1201862, “PubChem BioAssay data set” (2004).
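Exposure lasted 48 hours, with cells grown in 96-well plates and compounds tested at five concentrations. GI50 is the concentration that inhibits growth by half.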 Active and inactive are the calls of the source. Rule as the data show it: active = GI50 up to about 1.1 µM and inactive = higher.

Tests used:
Assay in all cases: NCI-60 cell line screen, 48 h
[1] = tested on: A498
[2] = tested on: ACHN
[3] = tested on: BT-549
[4] = tested on: EKVX
[5] = tested on: HCT-15
[6] = tested on: HL-60
[7] = tested on: HT-29
[8] = tested on: MCF7
[9] = tested on: MOLT-4
[10] = tested on: Malme-3M
[11] = tested on: NCI-H460
[12] = tested on: NCI-H522
[13] = tested on: PC-3
[14] = tested on: RPMI-8226
[15] = tested on: RXF 393
[16] = tested on: SF-268
[17] = tested on: SK-MEL-5
[18] = tested on: SW-620
[19] = tested on: UO-31
[20] = tested on: HCC 2998

Cc1ccc(C)c(NC(=O)C(Cc2c[nH]c3ccccc23)NC(=O)OCc2ccccc2)c1 (stereo not drawn)
GI50 [1]: 35.6 µM (inactive)
GI50 [2]: 22.9 µM (inactive)
GI50 [3]: 21.8 µM (inactive)
GI50 [4]: 14.5 µM (inactive)
GI50 [5]: 20.9 µM
GI50 [6]: 3 µM (inactive)
GI50 [7]: 12.4 µM (inactive)
GI50 [8]: 23.1 µM (inactive)
GI50 [9]: 4.52 µM (inactive)
GI50 [10]: 25.4 µM (inactive)
GI50 [11]: 13.7 µM (inactive)
GI50 [12]: 16.1 µM (inactive)
GI50 [13]: 11.5 µM (inactive)
GI50 [14]: 12 µM (inactive)
GI50 [15]: 6.34 µM (inactive)
GI50 [16]: 26.4 µM (inactive)
GI50 [17]: 10.8 µM (inactive)
GI50 [18]: 15.1 µM (inactive)
GI50 [19]: 15.4 µM (inactive)

COC(=O)[C@H](Cc1c[nH]c2ccccc12)NC(=O)c1ccccc1I
GI50 [1]: 18.5 µM (inactive)
GI50 [2]: 17.1 µM (inactive)
GI50 [3]: > 100 µM (inactive)
GI50 [4]: > 100 µM (inactive)
GI50 [20]: 26.4 µM (inactive)
GI50 [5]: > 100 µM
GI50 [6]: 24.9 µM (inactive)
GI50 [7]: 23.7 µM (inactive)
GI50 [8]: 37.8 µM (inactive)
GI50 [9]: 17.5 µM (inactive)
GI50 [10]: 18.7 µM (inactive)
GI50 [11]: 24.8 µM (inactive)
GI50 [12]: 15.6 µM (inactive)
GI50 [13]: 24.6 µM (inactive)
GI50 [15]: 18.7 µM (inactive)
GI50 [16]: 19.8 µM (inactive)
GI50 [17]: 16.1 µM (inactive)
GI50 [18]: 31.5 µM (inactive)
GI50 [19]: 19.3 µM (inactive)

CSc1nc2c(c(=O)[nH]1)N=C(c1ccc([N+](=O)[O-])cc1)CC(c1ccccc1)N2 (stereo not drawn)
GI50 [1]: > 100 µM (inactive)
GI50 [2]: 31.9 µM (inactive)
GI50 [3]: 37.7 µM (inactive)
GI50 [4]: 36.4 µM (inactive)
GI50 [20]: 22.5 µM (inactive)
GI50 [6]: 14.7 µM (inactive)
GI50 [7]: 20.3 µM (inactive)
GI50 [8]: 23.7 µM (inactive)
GI50 [9]: 31.3 µM (inactive)
GI50 [10]: 55.5 µM (inactive)
GI50 [12]: 23.9 µM (inactive)
GI50 [13]: 49.4 µM (inactive)
GI50 [14]: 22 µM (inactive)
GI50 [15]: 23.2 µM (inactive)
GI50 [17]: 20.9 µM (inactive)
GI50 [18]: 22.9 µM (inactive)
GI50 [19]: 50 µM (inactive)

OC1CCN(c2c3ccccc3nc3ccccc23)CC1
GI50 [1]: 19 µM (inactive)
GI50 [2]: 8.71 µM (inactive)
GI50 [3]: 17.7 µM (inactive)
GI50 [4]: 55.2 µM (inactive)
GI50 [5]: 16.5 µM
GI50 [6]: 8.61 µM (inactive)
GI50 [7]: 2.28 µM (inactive)
GI50 [8]: 2.79 µM (inactive)
GI50 [9]: 4.73 µM (inactive)
GI50 [10]: 9.82 µM (inactive)
GI50 [11]: 21.3 µM (inactive)
GI50 [12]: 2.92 µM (inactive)
GI50 [13]: 25.5 µM (inactive)
GI50 [14]: 4.82 µM (inactive)
GI50 [15]: 4.55 µM (inactive)
GI50 [16]: 17.2 µM (inactive)
GI50 [17]: 19.7 µM (inactive)
GI50 [18]: 3.36 µM (inactive)
GI50 [19]: 2.45 µM (inactive)

N#CC1(C#N)[C@@H]2CCC=C(Sc3ccccc3)[C@@H]21
GI50 [1]: 31.7 µM (inactive)
GI50 [2]: 15.5 µM (inactive)
GI50 [3]: 23 µM (inactive)
GI50 [4]: 18.5 µM (inactive)
GI50 [20]: 16.7 µM (inactive)
GI50 [5]: 17.7 µM
GI50 [6]: 8.59 µM (inactive)
GI50 [7]: 18.6 µM (inactive)
GI50 [8]: 10.4 µM (inactive)
GI50 [9]: 14.5 µM (inactive)
GI50 [10]: 16.9 µM (inactive)
GI50 [11]: 19.5 µM (inactive)
GI50 [12]: 10.8 µM (inactive)
GI50 [13]: 14.3 µM (inactive)
GI50 [14]: 12.9 µM (inactive)
GI50 [15]: 13 µM (inactive)
GI50 [16]: 20.1 µM (inactive)
GI50 [17]: 13.9 µM (inactive)
GI50 [18]: 11.9 µM (inactive)

CC(=O)Oc1ccc2c3c1[C@@H]1O[C@@H]1c1cccc(c1-3)[C@@H]1O[C@H]21
GI50 [1]: 2.19 µM (inactive)
GI50 [2]: 1.84 µM (inactive)
GI50 [3]: 1.87 µM (inactive)
GI50 [4]: 2.02 µM (inactive)
GI50 [20]: 2 µM (inactive)
GI50 [5]: 1.66 µM
GI50 [6]: 0.883 µM (active)
GI50 [7]: 1.81 µM (inactive)
GI50 [8]: 2.55 µM (inactive)
GI50 [10]: 1.86 µM (inactive)
GI50 [12]: 1.47 µM (inactive)
GI50 [13]: 2.33 µM (inactive)
GI50 [14]: 1.37 µM (inactive)
GI50 [15]: 1.36 µM (inactive)
GI50 [16]: 2.11 µM (inactive)
GI50 [17]: 1.61 µM (inactive)
GI50 [18]: 1.14 µM (inactive)
GI50 [19]: 1.52 µM (inactive)

Oc1ccc(O)c(CNc2ccc(C(O)C(F)(F)F)cc2)c1 (stereo not drawn)
GI50 [1]: 41.4 µM (inactive)
GI50 [2]: 13.7 µM (inactive)
GI50 [3]: 12.1 µM (inactive)
GI50 [4]: 14.5 µM (inactive)
GI50 [5]: 13.7 µM
GI50 [6]: 3.42 µM (inactive)
GI50 [7]: 32.4 µM (inactive)
GI50 [8]: 21.8 µM (inactive)
GI50 [9]: 5.01 µM (inactive)
GI50 [10]: 15.6 µM (inactive)
GI50 [11]: 21.5 µM (inactive)
GI50 [12]: 1.66 µM (inactive)
GI50 [13]: 16.3 µM (inactive)
GI50 [15]: 12.5 µM (inactive)
GI50 [16]: 22.2 µM (inactive)
GI50 [17]: 29.3 µM (inactive)
GI50 [18]: 32.2 µM (inactive)
GI50 [19]: 10.3 µM (inactive)

COc1ccc(N2/C(=N/c3ccccc3)SC(=N/S(=O)(=O)c3ccccc3)/C2=N\S(=O)(=O)c2ccccc2)cc1
GI50 [1]: 20.1 µM (inactive)
GI50 [2]: 23.3 µM (inactive)
GI50 [3]: 24.3 µM (inactive)
GI50 [4]: 22.6 µM (inactive)
GI50 [20]: 17.3 µM (inactive)
GI50 [5]: 13.3 µM
GI50 [6]: 12.1 µM (inactive)
GI50 [7]: 19.6 µM (inactive)
GI50 [8]: 18.7 µM (inactive)
GI50 [9]: 17.8 µM (inactive)
GI50 [10]: 21 µM (inactive)
GI50 [11]: 11.3 µM (inactive)
GI50 [13]: 16.7 µM (inactive)
GI50 [14]: 20.7 µM (inactive)
GI50 [15]: 12.8 µM (inactive)
GI50 [17]: 16.6 µM (inactive)
GI50 [18]: 34.8 µM (inactive)
GI50 [19]: 19.2 µM (inactive)

COc1ccc(C2SC(=N)Nc3c2c(C)nn3C(=O)c2ccncc2)cc1 (stereo not drawn)
GI50 [1]: 98.4 µM (inactive)
GI50 [2]: > 100 µM (inactive)
GI50 [3]: > 100 µM (inactive)
GI50 [4]: > 100 µM (inactive)
GI50 [5]: > 100 µM
GI50 [6]: 87.1 µM (inactive)
GI50 [7]: > 100 µM (inactive)
GI50 [8]: 75.2 µM (inactive)
GI50 [9]: 44.5 µM (inactive)
GI50 [10]: > 100 µM (inactive)
GI50 [11]: 42.3 µM (inactive)
GI50 [13]: > 100 µM (inactive)
GI50 [14]: 57.3 µM (inactive)
GI50 [15]: > 100 µM (inactive)
GI50 [16]: > 100 µM (inactive)
GI50 [17]: 45.7 µM (inactive)
GI50 [18]: > 100 µM (inactive)
GI50 [19]: > 100 µM (inactive)

COc1ccc2c3c(c(=O)n(C)c2c1OC)C=CC(C)(C)O3
GI50 [1]: 17.9 µM (inactive)
GI50 [2]: 13.7 µM (inactive)
GI50 [3]: 22.1 µM (inactive)
GI50 [4]: 23.9 µM (inactive)
GI50 [20]: 29.5 µM (inactive)
GI50 [5]: 13.4 µM
GI50 [6]: 11.2 µM (inactive)
GI50 [7]: 24 µM (inactive)
GI50 [8]: 36.8 µM (inactive)
GI50 [9]: 24.4 µM (inactive)
GI50 [10]: 50.4 µM (inactive)
GI50 [12]: 34.5 µM (inactive)
GI50 [13]: 33.7 µM (inactive)
GI50 [14]: 10 µM (inactive)
GI50 [15]: 26.5 µM (inactive)
GI50 [16]: 26.8 µM (inactive)
GI50 [17]: 13.3 µM (inactive)
GI50 [18]: 28.4 µM (inactive)
GI50 [19]: 20.9 µM (inactive)

OC1CCC(C2C3CCCCC3C3CCCCC3C2C2CCC(O)CC2)CC1 (stereo not drawn)
GI50 [1]: 15.8 µM (inactive)
GI50 [2]: 2.98 µM (inactive)
GI50 [3]: 3.89 µM (inactive)
GI50 [4]: 9.89 µM (inactive)
GI50 [5]: 2.49 µM
GI50 [6]: 4.13 µM (inactive)
GI50 [7]: 2.05 µM (inactive)
GI50 [8]: 3.4 µM (inactive)
GI50 [9]: 4.39 µM (inactive)
GI50 [10]: 15.8 µM (inactive)
GI50 [11]: 2.96 µM (inactive)
GI50 [12]: 2.34 µM (inactive)
GI50 [13]: 5.31 µM (inactive)
GI50 [14]: 5.53 µM (inactive)
GI50 [15]: 2.9 µM (inactive)
GI50 [16]: 2.99 µM (inactive)
GI50 [17]: 10.4 µM (inactive)
GI50 [18]: 3.99 µM (inactive)
GI50 [19]: 4.81 µM (inactive)
